Test results: US20140135270A1, “MACROCYCLIC COMPOUNDS FOR INHIBITION OF INHIBITORS OF APOPTOSIS” (Ensemble Therapeutics Corp., priority 2012, published 2014)
Like-named read-outs stand apart in the source and are kept apart here.

Tests used:
Type in all cases: binding
[1] = biological target: T1, N-His-Tb-BIR3(241-356, XIAP) (Homo sapiens, UniProt P98170); assay: XIAP-BIR3 SMAC Peptide Fluorescence Polarization Assay (FPA)
T1 construct: additions of N-His-Tb-BIR3(241-356, XIAP), fluoresceinated modified SMAC peptide; Tb (meaning not explained; sits between His tag and BIR3) (N)
Description: A. XIAP-BIR3 SMAC Peptide Fluorescence Polarization Assay (FPA) Assays were performed in black, flat-bottom, 384-well plates. The final assay volume was 50 μL prepared from additions of N-His-Tb-BIR3(241-356, XIAP), fluoresceinated modified SMAC peptide, and test compounds in assay buffer consisting of 20 mM Sodium Phosphate, 1 mM EDTA, 50 mM NaCl, and 0.05% Pluronic F68. The reaction was incubated at room temperature for 60 minutes and fluorescence polarization of the reaction was detected on the LJL Plate Reader. Inhibition data were calculated from mP values generated by the no protein control reactions for 100% inhibition and vehicle-only reactions for 0% inhibition. The final concentration of reagents in the assay was 130 nM N-His-Tb-BIR3(241-356, XIAP), 1.4 nM fluoresceinated modified SMAC peptide, and 1% DMSO. Dose response curves were generated to determine the concentration required for inhibiting 50% of polarization activity (IC50). Compounds were dissolved at 10 mM in dimethylsulfoxide (DMSO) and evaluated at eleven concentrations. IC50 values were derived by non-linear regression analysis.

[2] = biological target: T2, His-BIR2 (124-240/C202A/C213G) (Homo sapiens, UniProt P98170, C202A/C213G); assay: XIAP-BIR2/SMAC Peptide AlphaScreen Assay
T2 construct: additions of His-BIR2 (124-240/C202A/C213G), Biotinylated SMAC peptide
Description: C. XIAP-BIR2/SMAC Peptide AlphaScreen Assay
Assays were performed in white, flat-bottom, 384-well ProxiPlates (Perkin Elmer). […]. The reaction was incubated at room temperature for 60 minutes. After 60 minutes, 2.5 μL of Alphascreen detection reagent (Perkin Elmer) was added to the reaction mixture and incubated at room temperature in the dark for 120 minutes. The Alphascreen signal generated by the reaction was detected on the Envision Plate Reader. Inhibition data were calculated from an Alphascreen signal generated by the no protein control reactions for 100% inhibition and vehicle-only reactions for 0% inhibition. […]
Biotinylated SMAC peptide, 4 μg/mL Alphascreen detection reagents, and 0.5% DMSO. Dose response curves were generated to determine the concentration required for inhibiting 50% of the activity (IC50). Compounds were dissolved at 10 mM in dimethylsulfoxide (DMSO) and evaluated at eleven concentrations. IC50 values were derived by non-linear regression analysis.

His-BIR3 (241-356, XIAP) = biological target: T3, His-BIR3 (241-356, XIAP) (Homo sapiens, UniProt P98170); assay: XIAP-BIR3/SMAC Homogeneous Time Resolved Fluorescence (HTRF) Assay; conditions: fluorescein labeled SMAC peptide
T3 construct: additions of His-BIR3 (241-356, XIAP), fluorescein labeled SMAC peptide

[3] = biological target: T4, His-BIR2-3 (125-356, C202A/C213G, XIAP) (Homo sapiens, UniProt P98170, C202A/C213G); assay: XIAP-BIR2-3 Dimeric SMAC Peptide Homogeneous Time Resolved Fluorescence (HTRF) Assay; conditions: fluorescein labeled dimeric SMAC peptide
T4 construct: additions of His-BIR2-3 (125-356, C202A/C213G, XIAP), fluorescein labeled dimeric SMAC peptide

[4] = read-out: BIR3 FPA IC50, fluorescence polarization, fluoresceinated modified SMAC peptide
[5] = biotinylated SMAC peptide, read-out: BIR2 ALPHA IC50
[6] = fluorescence polarization, fluoresceinated modified SMAC peptide, read-out: BIR3 FPA IC50
[7] = read-out: BIR2 ALPHA IC50, biotinylated SMAC peptide

T2 sequence (P98170 124-240 C202A/C213G): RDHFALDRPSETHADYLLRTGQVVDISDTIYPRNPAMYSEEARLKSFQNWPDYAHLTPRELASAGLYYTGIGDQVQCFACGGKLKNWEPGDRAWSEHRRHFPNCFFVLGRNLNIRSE
T4 sequence (P98170 125-356 C202A/C213G): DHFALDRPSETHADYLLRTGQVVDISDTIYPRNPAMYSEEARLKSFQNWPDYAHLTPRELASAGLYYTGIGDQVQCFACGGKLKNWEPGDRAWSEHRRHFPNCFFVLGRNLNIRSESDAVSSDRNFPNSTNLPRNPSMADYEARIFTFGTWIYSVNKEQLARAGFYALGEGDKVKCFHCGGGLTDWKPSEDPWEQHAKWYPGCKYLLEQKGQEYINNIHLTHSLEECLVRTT
T3 sequence (P98170 241-356): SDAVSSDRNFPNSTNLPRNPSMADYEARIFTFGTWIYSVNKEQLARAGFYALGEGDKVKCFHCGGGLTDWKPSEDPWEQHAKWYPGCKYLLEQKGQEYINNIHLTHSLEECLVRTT
T1 sequence (P98170 241-356): as above

| SMILES | IC50 [2, 5] [nM] | IC50 [1] [nM] | IC50 (His-BIR3 (241-356, XIAP)) [nM] | IC50 [3] [nM] | further results |
| --- | --- | --- | --- | --- | --- |
| CNC(C)C(=O)NC(C(=O)N1CC2CC1C(=O)NC(Cc1ccc3ccccc3c1)C(=O)NC(C(=O)O)Cc1ccc(cc1)OCC=CCOC1CC(C(=O)NC(Cc3ccc4ccccc4c3)C(=O)NC(C(=O)O)CCCC(=O)N2)N(C(=O)C(NC(=O)C(C)NC)C(C)(C)C)C1)C(C)(C)C (stereo not shown) [Example 36] | 38.8 |  |  |  | IC50 [1, 4]: 49 nM |
| CNC(C)C(=O)NC(C(=O)N1CC2CC1C(=O)NC(Cc1ccc3ccccc3c1)C(=O)NC(C(=O)O)Cc1ccc(cc1)OCCCCOC1CC(C(=O)NC(Cc3ccc4ccccc4c3)C(=O)NC(C(=O)NS(C)(=O)=O)Cc3ccc(cc3)OCc3cn2nn3)N(C(=O)C(NC(=O)C(C)NC)C(C)(C)C)C1)C(C)(C)C (stereo not shown) [Example 8] |  |  |  |  | IC50 [1, 6]: 49.6 nM; IC50 [2, 7]: 190 nM |
| CN[C@@H](C)C(=O)N[C@H](C(=O)N1C[C@@H]2C[C@H]1C(=O)N[C@@H](Cc1ccc3ccccc3c1)C(=O)N[C@H](C(=O)O)COC/C=C/CO[C@H]1C[C@@H](C(=O)N[C@@H](Cc3ccc4ccccc4c3)C(=O)N[C@H](C(=O)O)Cc3ccc(cc3)C(=O)N2)N(C(=O)[C@@H](NC(=O)[C@H](C)NC)C(C)(C)C)C1)C(C)(C)C [Example 39] | 41.1 | 31.3 |  |  |  |
| CNC(C)C(=O)NC(C(=O)N1CC2CC1C(=O)NC(Cc1ccc3ccccc3c1)C(=O)NC(C(=O)O)Cc1ccc(cc1)OCC=CCOC1CC(C(=O)NC(Cc3ccc4ccccc4c3)C(=O)NC(C(=O)O)Cc3ccc(cc3)C(=O)N2)N(C(=O)C(NC(=O)C(C)NC)C(C)(C)C)C1)C(C)(C)C (stereo not shown) [Example 32] | 16.2 |  |  |  | IC50 [1, 4]: 36.1 nM |
| CN[C@@H](C)C(=O)N[C@H](C(=O)N1C[C@@H]2C[C@H]1C(=O)N[C@@H](Cc1ccc3ccccc3c1)C(=O)N[C@H](C(=O)O)Cc1ccc(cc1)OC/C=C/CO[C@H]1C[C@@H](C(=O)N[C@@H](Cc3ccc4ccccc4c3)C(=O)N[C@H](C(=O)O)CC(=O)N2)N(C(=O)[C@@H](NC(=O)[C@H](C)NC)C(C)(C)C)C1)C(C)(C)C [Example 41] | 45.7 | 46.7 |  |  |  |
| CN[C@@H](C)C(=O)N[C@H](C(=O)N1C[C@@H]2C[C@H]1C(=O)N[C@@H](Cc1ccc3ccccc3c1)C(=O)N[C@H](C(=O)O)C/C=C/CO[C@H]1C[C@@H](C(=O)N[C@@H](Cc3ccc4ccccc4c3)C(=O)N[C@H](C(=O)O)CCC(=O)N2)N(C(=O)[C@@H](NC(=O)[C@H](C)NC)C(C)(C)C)C1)C(C)(C)C [Example 35] | 49.1 | 47.6 |  |  |  |
| CN[C@@H](C)C(=O)N[C@H](C(=O)N1C[C@@H]2C[C@H]1C(=O)N[C@@H](Cc1ccc3ccccc3c1)C(=O)N[C@H](C(=O)O)COC/C=C/CO[C@H]1C[C@@H](C(=O)N[C@@H](Cc3ccc4ccccc4c3)C(=O)N[C@H](C(=O)O)CCCC(=O)N2)N(C(=O)[C@@H](NC(=O)[C@H](C)NC)C(C)(C)C)C1)C(C)(C)C [Example 37] | 58.2 | 33 |  |  |  |
| CN[C@@H](C)C(=O)N[C@H](C(=O)N1C[C@@H]2C[C@H]1C(=O)N[C@@H](Cc1ccc3ccccc3c1)C(=O)N[C@H](C(=O)O)COC/C=C/CO[C@H]1C[C@@H](C(=O)N[C@@H](Cc3ccc4ccccc4c3)C(=O)N[C@H](C(=O)O)CC(=O)N2)N(C(=O)[C@@H](NC(=O)[C@H](C)NC)C(C)(C)C)C1)C(C)(C)C [Example 42] | 74.6 | 44 |  |  |  |
| CN[C@@H](C)C(=O)N[C@H](C(=O)N1C[C@@H]2C[C@H]1C(=O)N[C@@H](Cc1ccc3ccccc3c1)C(=O)N[C@H](C(=O)O)C/C=C/CO[C@H]1C[C@@H](C(=O)N[C@@H](Cc3ccc4ccccc4c3)C(=O)N[C@H](C(=O)O)Cc3ccc(cc3)C(=O)N2)N(C(=O)[C@@H](NC(=O)[C@H](C)NC)C(C)(C)C)C1)C(C)(C)C [Example 40] | 44.2 | 26.3 |  |  |  |
| CNC(C)C(=O)NC(C(=O)N1CC2CC1C(=O)NC(Cc1ccc3ccccc3c1)C(=O)NC(C(=O)O)Cc1ccc(cc1)OCC=CCOC1CC(C(=O)NC(Cc3ccc4ccccc4c3)C(=O)NC(C(=O)NS(C)(=O)=O)Cc3ccc(cc3)OCc3cn2nn3)N(C(=O)C(NC(=O)C(C)NC)C(C)(C)C)C1)C(C)(C)C (stereo not shown) [Example 5] |  |  |  |  | IC50 [1, 6]: 50 nM; IC50 [2, 7]: 71.5 nM |
| CN[C@@H](C)C(=O)N[C@H](C(=O)N1C[C@@H]2C[C@H]1C(=O)N[C@@H](Cc1ccc3ccccc3c1)C(=O)N[C@H](C(=O)O)C/C=C/CO[C@H]1C[C@@H](C(=O)N[C@@H](Cc3ccc4ccccc4c3)C(=O)N[C@H](C(=O)O)CC(=O)N2)N(C(=O)[C@@H](NC(=O)[C@H](C)NC)C(C)(C)C)C1)C(C)(C)C [Example 43] | 147 | 74.1 |  |  |  |
| CN[C@@H](C)C(=O)N[C@@H](Cc1ccccc1)C(=O)N1C[C@@H]2C[C@H]1C(=O)N[C@@H](Cc1ccc3ccccc3c1)C(=O)N[C@H](C(=O)O)Cc1ccc(cc1)C(=O)N[C@H]1C[C@@H](C(=O)N[C@@H](Cc3ccc4ccccc4c3)C(=O)N[C@H](C(=O)O)Cc3ccc(cc3)OC/C=C/CO2)N(C(=O)[C@@H](NC(=O)[C@H](C)NC)C(C)(C)C)C1 [Example 70] |  |  | 9.3 | 2 |  |
| CN[C@@H](C)C(=O)N[C@H](C(=O)N1CC[C@H]2OCc3cn(nn3)CC[C@@H](C(=O)OC)NC(=O)[C@H](Cc3ccc4ccccc4c3)NC(=O)[C@@H]3[C@@H](CCN3C(=O)[C@@H](NC(=O)[C@H](C)NC)C(C)(C)C)OC/C=C/COc3ccc(cc3)C[C@@H](C(=O)O)NC(=O)[C@H](Cc3ccc4ccccc4c3)NC(=O)[C@H]21)C(C)(C)C [Example 17] |  |  | 1.8 | 1.8 |  |
| CN[C@@H](C)C(=O)N[C@@H](C)C(=O)N1C[C@@H]2C[C@H]1C(=O)N[C@@H](Cc1ccc3ccccc3c1)C(=O)N[C@H](C(=O)O)CCC(=O)N[C@H]1C[C@@H](C(=O)N[C@@H](Cc3ccc4ccccc4c3)C(=O)N[C@H](C(=O)O)Cc3ccc(cc3)OC/C=C/CO2)N(C(=O)[C@@H](NC(=O)[C@H](C)NC)C(C)(C)C)C1 [Example 55] |  |  | 252 | 108 |  |
| CN[C@@H](C)C(=O)N[C@H](C(=O)N1C[C@@H]2C[C@H]1C(=O)N[C@@H](Cc1ccc3ccccc3c1)C(=O)N[C@H](C(=O)O)Cc1ccc(cc1)CCCCO[C@H]1C[C@@H](C(=O)N[C@@H](Cc3ccc4ccccc4c3)C(=O)N[C@H](C(=O)NS(=O)(=O)C3CC3)Cc3ccc(cc3)OCc3cn2nn3)N(C(=O)[C@@H](NC(=O)[C@H](C)NC)C(C)(C)C)C1)C(C)(C)C [Example 127] |  |  | 7.5 | 7.1 |  |
| CN[C@@H](C)C(=O)N[C@H](C(=O)N1C[C@@H]2C[C@H]1C(=O)N[C@@H](Cc1ccc3ccccc3c1)C(=O)N[C@H](C(=O)O)COC/C=C/CO[C@H]1C[C@@H](C(=O)N[C@@H](Cc3ccc4ccccc4c3)C(=O)N[C@H](C(=O)O)CCC(=O)N2)N(C(=O)[C@@H](NC(=O)[C@H](C)NC)C(C)(C)C)C1)C(C)(C)C [Example 34] | 33.6 | 40.1 |  |  |  |
| CNC(C)C(=O)NC(C(=O)N1CC2CC1C(=O)NC(Cc1ccc3ccccc3c1)C(=O)NC(C(=O)O)Cc1ccc(cc1)OCC=CCOC1CC(C(=O)NC(Cc3ccc4ccccc4c3)C(=O)NC(C(=O)O)CCC(=O)N2)N(C(=O)C(NC(=O)C(C)NC)C(C)(C)C)C1)C(C)(C)C (stereo not shown) [Example 33] | 21.6 |  | 84.7 | 9.5 | IC50 [1, 4]: 31.6 nM |
| CN[C@@H](C)C(=O)N[C@H](C(=O)N1C[C@@H]2C[C@H]1C(=O)N[C@@H](Cc1ccc3ccccc3c1)C(=O)N[C@H](C(=O)O)C/C=C/CO[C@H]1C[C@@H](C(=O)N[C@@H](Cc3ccc4ccccc4c3)C(=O)N[C@H](C(=O)O)CCCC(=O)N2)N(C(=O)[C@@H](NC(=O)[C@H](C)NC)C(C)(C)C)C1)C(C)(C)C [Example 38] | 116 | 42.1 |  |  |  |
| CN[C@@H](C)C(=O)N[C@H](C(=O)N[C@H]1C/C=C/CC[C@@H](C(=O)O)NC(=O)[C@H](Cc2ccc3ccccc3c2)NC(=O)[C@@H]2CN(CCN2C(=O)[C@@H](NC(=O)[C@H](C)NC)C(C)(C)C)C(=O)CNC(=O)CC[C@@H](C(=O)O)NC(=O)[C@H](Cc2ccc3ccccc3c2)NC1=O)C(C)(C)C [Example 77] |  |  | 206 | 12.1 |  |
